Measured values from patent publication US20230390322A1, “HIGH CONCENTRATION METHYLCOBALAMIN OR COMBINATION OF METHYL- AND HYDROXY-COBALAMIN FOR THE TREATMENT OF COBALAMIN C DEFICIENCY DISORDERS” (THE U.S.A., as represented by the Secretary, Department of …, priority 2020, published 2023).
“Also recorded” adds a separate entry of the source.

Key:
Mmachc^de12/de12 embryos = test: E18.5 embryo weight and pathology, Mmachc^de12/de12; assay type: in vivo, mouse; conditions: prenatal treatment
Experimental: (§1) AAV Vector Design, Production, and Delivery: Two adeno associated viral vectors were designed: AAVrh10-Mmachc, containing the murine Mmachc coding sequence packaged into a rh10 serotype capsid, and AAV9-coMMACHC, containing a codon optimized human MMACHC coding sequence packaged into an AAV9 serotype capsid. AAVs were produced as described previously. AAV viral vectors were delivered via intrahepatic injection at a dose of 1×10^11 GC per pup in the neonatal period (P0-2). ddPCR was conducted using a CMV/CBA probe spanning the promoter/enhancer, reference albumin Dissection of Pregnant Dams: Pregnant dams were either untreated, treated with OHCbl, MeCbl or the combination (1 mg per week) during pregnancy as described and sacrificed at E18.5. Embryos were photographed, tails were collected for genotyping, and the remaining tissue was collected and flash frozen. Embryo weights were measured and the weight of mutants relative to average weight of control littermates was calculated. Crown to rump length of each embryo was also determined using ImageJ software.

Mmachc^de13/de13 mice [1] = test: Survival of treated Mmachc^de13/de13 mutant mice; assay type: in vivo, mouse; conditions: for median survival: Mmachc^de13/de13 mutants, pregnant dams treated weekly (1 mg) throughout gestation and weaning (prenatal treatment); for mutants alive at 100 days: prenatal treatment
Experimental: (§2) Survival and phenotype in Mmachc mice: Mendelian ratios at birth, survival, and relative weight: To determine survival, litters were assessed daily after birth and dead pups were noted, removed, and genotyped when tissue was available. Age at time of death was recorded. Weights were measured monthly and the weight of mutants relative to average weight of control littermates was calculated.
(§3) Cobalamin Treatment: OHCbl and MeCbl were obtained from College Pharmacy (Colorado Spring, CO) or prepared at 25 mg/ml concentration and subsequently diluted with 0.9% saline solution to a working solution of 5 mg/ml. OHCbl or MeCbl was delivered by intraperitoneal injections for pups ages P0-P14 and subcutaneous injections for mice post weaning. For in utero treatment studies, pregnant dams were treated with 1 mg/week (100 mg/kg) via subcutaneous injections throughout pregnancy and weaning. For chronic therapy 50 μg/kg dosing was used.
as §1
(§4) Statistics: Graphpad Prism Software was used for statistical analysis. All data are presented as mean±SD and significance is indicated as follows: p<0.05(*), p<0.01(**), p<0.001 (***), and p<0.0001(****). Kaplan-Meier survival curve significance was determined using the Log-Rank Mantel-Cox test, genotype distribution significance was assessed using the chi-square test, and all other statistics were calculated using the unpaired t-test.

Mmachc^del2 mouse line = test: Genotype distribution at birth (P0-2), Mmachc^del2 litters; assay type: in vivo; conditions: mice at birth; prenatal treatment
Experimental: (§5) Genotyping and breeding scheme: Tail biopsies were performed routinely at 10-15 days of life or in rare cases in the first day of life and DNA was extracted using the Qiagen DNEASY® Spin Kit or the MYTAQ® Extract-PCR Kit. Mmachc genotype was determined by a fluorescent PCR method described previously^22 or by Droplet Digital PCR (ddPCR) Mutation Detection Assay (Bio-Rad). ddPCR genotyping was performed by mixing 2 ul of 1:10 diluted DNA, 1.1 ul probe-primer mix, and 7.9 ul water. The primer-probe mix contained the wild-type/mutant primer and fluorescent FAM and HEX probes targeting the mutant and wild-type alleles, respectively. Sample droplets were generated by the QX200 Droplet Digital PCR system, PCR amplified in a thermocycler, and DNA quantified by droplet fluorescence. Mmachc homozygous mutant mice and their heterozygote or wild type control littermates were generated from heterozygous parental crosses unless otherwise noted. In order to eliminate the Pdeb(rdl) mutation present in the FVB/N genetic background which causes retinal degeneration, Mmachc carrier mice were crossed to C57BL/6J mice. Subsequent generations of Mmachc carriers were genotyped for the Pdeb(rdl) mutation using a published PCR method (Gimenez and Montouliu Lab Anim 35, 153-6 (2001)), and mice homozygous for the functional Pdeb(rdl) allele were selected for further breeding. Mice were fed regular or high fat chow and weaned at P21-28.
as §2, §3, §4

Mmachc^de12/de12 mice [2] = test: Survival of treated Mmachc^de12/de12 mutant mice; assay type: in vivo, mouse; conditions: prenatal treatment; for median survival: Mmachc^de12/de12 mutants, OHCbl 1 mg, MeCbl 1 mg or 0.5 mg each weekly
Experimental: as §2, §3, §4

Mmachc^de13/de13 mice [3] = test: Postnatal weight relative to control littermates, Mmachc^de13/de13; assay type: in vivo, mouse
Experimental: as §2

Mmachc^de13/de13 mice [4] = test: Plasma metabolite measurements (GC-MS), Mmachc^de13/de13; assay type: in vivo, mouse; conditions: for plasma cystathionine: P0-P30; for plasma methylmalonic acid: P0-P30 (two weeks)
Experimental: Metabolite measurements: Blood samples were collected in heparinized capillary tubes and centrifuged at 2000 rpm for 10 min at 4C. Plasma was diluted 1:40 in water for methylmalonic acid and methylcitrate measurements and undiluted plasma was used for homocysteine and cystathionine measurements. Plasma concentrations were determined by gas chromatography-mass spectrometry (GC-MS).

Mmachc^del3 mouse line [5] = test: Genotype distribution at birth (P0-2), Mmachc^del3 litters; assay type: in vivo; conditions: mice at birth; prenatal treatment
Experimental: as §5, §2, §3, §4

Mmachc^de13/de13 mice [6] = test: Pigmentation / clinical appearance, Mmachc^de13/de13; assay type: in vivo, mouse
Mmachc^de12/de12 mice [7] = test: Pigmentation / clinical appearance, Mmachc^de12/de12; assay type: in vivo, mouse; conditions: prenatal treatment
Mmachc^de12/de12 mice [8] = test: Postnatal weight, Mmachc^de12/de12; assay type: in vivo, mouse; conditions: prenatal treatment
Experimental: as §2

Mmachc^de13/de13 embryos = test: E18.5 embryo growth parameters, Mmachc^de13/de13; assay type: in vivo, mouse
Experimental: as §1

Mmachc^de13/de13 mice [9] = test: Retinal histology and electroretinography, Mmachc^de13/de13; assay type: in vivo, mouse
Excerpt: The severe neonatal lethality of this model in combination with the fact that the mouse retina develops until ˜P21 made it challenging to study retinal pathology in untreated mice.

Mmachc^del3 mouse line [10] = test: Genotype distribution at E18.5, Mmachc^del3 litters; assay type: in vivo; conditions: mice at E18.5; prenatal treatment
Experimental: as §1, §4

cblC patients = test: Natural history cohort of cblC patients (NCT00078078); assay type: in vivo, human
Experimental: Extensive data was collected on a large natural history cohort of 61 patients studied every 2-3 years over 15 yrs to evaluate the impact of different approaches to clinical management/cobalamin therapy on disease outcomes (ClinicalTrial.gov ID: NCT00078078). […] Six patients (ages 2.2-3.8 years), who received higher doses of hydroxocobalamin (5-20 mg/day or 0.3-1.4 mg/kg/d) starting between 6 mo-1 yr, presented with variable macular degeneration and improved average FSIQ and ABC scores in the normal range (FSIQ 91.6±5.3; ABC 88.2±10.7), compared to our historic scores in young children <10 y of age on <0.3 mg/kg/day (FSIQ 70.69±19.11, ABC 79.83±17.42).

[11] = 7-13 months, both prenatal OHCbl and prenatal OHCbl+weekly groups
[12] = 7-13 months, prenatal+postnatal OHCbl
[13] = six patients ages 2.2-3.8 years, 5-20 mg/day or 0.3-1.4 mg/kg/d starting between 6 mo-1 yr
[14] = young children <10 y of age on <0.3 mg/kg/day

C/C1=C2/[N-][C@H]([C@H](CC(N)=O)[C@@]2(C)CCC(=O)NC[C@H](C)OP(=O)([O-])O[C@H]2[C@@H](O)[C@@H](n3cnc4cc(C)c(C)cc43)O[C@@H]2CO)[C@]2(C)N=C(/C(C)=C3N=C(/C=C4N=C1[C@@H](CCC(N)=O)C\4(C)C)[C@@H](CCC(N)=O)[C@]\3(C)CC(N)=O)[C@@H](CCC(N)=O)[C@]2(C)CC(N)=O.[CH3-].[Co+3] [MeCbl, methylcobalamin]
weight of E18.5 embryos normalized to control values (Mmachc^de12/de12 embryos; weekly subcutaneous injection of dams, untreated 76.4%): 89.4 % of controls | pathology at E18.5 (Mmachc^de12/de12 embryos; H&E): ameliorated the pathology in the lungs, liver and brown fat | median survival (Mmachc^de13/de13 mice [1]): 144 days | mutants alive at 100 days (Mmachc^de13/de13 mice [1]): 100% | genotype distribution +/+ (%) (Mmachc^del2 mouse line): 18% | genotype distribution +/+ n (Mmachc^del2 mouse line): 14 | genotype distribution +/− (%) (Mmachc^del2 mouse line): 53% | genotype distribution +/− n (Mmachc^del2 mouse line): 41 | genotype distribution −/− (%) (Mmachc^del2 mouse line): 29% | genotype distribution −/− n (Mmachc^del2 mouse line): 22 | median survival (Mmachc^de12/de12 mice [2]): 78 days | mutants survived beyond 30 days (Mmachc^de12/de12 mice [2]): 100% | size relative to littermates at 3 months (Mmachc^de13/de13 mice [3]; prenatal treatment): 48% | plasma cystathionine (Mmachc^de13/de13 mice [4]; prenatal treatment): reduced cystathionine to control levels; also recorded: decreased to control levels | homocysteine levels (Mmachc^de13/de13 mice [4]; prenatal treatment): did not improve | genotype distribution +/+ (%) (Mmachc^del3 mouse line [5]): 31% | genotype distribution +/+ n (Mmachc^del3 mouse line [5]): 38 | genotype distribution +/− (%) (Mmachc^del3 mouse line [5]): 63% | genotype distribution +/− n (Mmachc^del3 mouse line [5]): 76 | genotype distribution −/− (%) (Mmachc^del3 mouse line [5]): 6% | genotype distribution −/− n (Mmachc^del3 mouse line [5]): 7 | pigmentation of fur, ears and tails (Mmachc^de13/de13 mice [6]; prenatal treatment): minimal pigmentation differences | pigmentation of the ears (Mmachc^de12/de12 mice [7]): improvement in pigmentation of the ears | growth at 1 month (Mmachc^de12/de12 mice [8]): appeared growth impaired but this was not significant at 1 month

C/C1=C2/[N-][C@H]([C@H](CC(N)=O)[C@@]2(C)CCC(=O)NC[C@@H](C)OP(=O)([O-])O[C@H]2[C@@H](O)[C@@H](n3cnc4cc(C)c(C)cc43)O[C@@H]2CO)[C@]2(C)N=C(/C(C)=C3N=C(/C=C4N=C1[C@@H](CCC(N)=O)C\4(C)C)[C@@H](CCC(N)=O)[C@]\3(C)CC(N)=O)[C@@H](CCC(N)=O)[C@]2(C)CC(N)=O.[Co+3].[OH-] [OHCbl, hydroxocobalamin]
embryo weight normalized to control littermates (Mmachc^de13/de13 embryos; de13/de13, prenatal treatment, n=11): 0.8204±0.03641 | anterioposterior abdominal dimension (APD) (Mmachc^de13/de13 embryos; prenatal treatment): did not improved | crown rump length (IUGR) (Mmachc^de13/de13 embryos; prenatal treatment): did not rescue the IUGR | retinal histology (Mmachc^de13/de13 mice [9]; 6-9 months of age): within normal limits | electroretinography (ERG) (Mmachc^de13/de13 mice [9]; prenatal OHCbl/AAV9 at 9 months, OHCbl at 6 months): diminished scotopic B waves | median survival (Mmachc^de13/de13 mice [1]): 109 days | mutants alive at 100 days (Mmachc^de13/de13 mice [1]): 50% | longest surviving (Mmachc^de13/de13 mice [1]; prenatal+weekly OHCbl): > 1 year | genotype distribution +/+ (%) (Mmachc^del2 mouse line): 29% | genotype distribution +/+ n (Mmachc^del2 mouse line): 76 | genotype distribution +/− (%) (Mmachc^del2 mouse line): 66% | genotype distribution +/− n (Mmachc^del2 mouse line): 171 | genotype distribution −/− (%) (Mmachc^del2 mouse line): 5% | genotype distribution −/− n (Mmachc^del2 mouse line): 13 | median survival (Mmachc^de12/de12 mice [2]): 25 days | relative weight of mutant mice at two weeks (Mmachc^de13/de13 mice [3]; prenatal OHCbl): improved the weight vs untreated | relative weight of mutant mice at two weeks (Mmachc^de13/de13 mice [3]; prenatal OHCbl+weekly): improved the weight vs untreated | homocysteine (Mmachc^de13/de13 mice [4]; [11]): remained elevated vs controls but was lower | methylmalonic acid (Mmachc^de13/de13 mice [4]; [11]): remained elevated vs controls and untreated mutants | methylmalonic acid levels in the blood [MMA] (Mmachc^de13/de13 mice [4]; [12]): > 1500 µM | total homocysteine levels (tHCYS) (Mmachc^de13/de13 mice [4]; [12]): 31 µM | plasma methylmalonic acid (Mmachc^de13/de13 mice [4]; prenatal treatment only): no decrease | plasma methylmalonic acid (Mmachc^de13/de13 mice [4]; weekly (chronic) OHCbl): decreased | plasma cystathionine (Mmachc^de13/de13 mice [4]; prenatal treatment): elevated compared to untreated mutants; also recorded: increased | homocysteine levels (Mmachc^de13/de13 mice [4]; prenatal and weekly treatment): did not improve | homocysteine levels (Mmachc^de13/de13 mice [4]; prenatal treatment): did not improve | genotype distribution +/+ (%) (Mmachc^del3 mouse line [5]): 30% | genotype distribution +/+ n (Mmachc^del3 mouse line [5]): 105 | genotype distribution +/− (%) (Mmachc^del3 mouse line [5]): 54% | genotype distribution +/− n (Mmachc^del3 mouse line [5]): 192 | genotype distribution −/− (%) (Mmachc^del3 mouse line [5]): 16% | genotype distribution −/− n (Mmachc^del3 mouse line [5]): 57 | pigmentation of ears and tail (Mmachc^de13/de13 mice [6]; long term (prenatal+weekly) treatment): decreased hypopigmentation | genotype distribution +/+ (%) (Mmachc^del3 mouse line [10]): (23) % | genotype distribution +/+ n (Mmachc^del3 mouse line [10]): 14 | genotype distribution +/− (%) (Mmachc^del3 mouse line [10]): (46) % | genotype distribution +/− n (Mmachc^del3 mouse line [10]): 28 | genotype distribution −/− (%) (Mmachc^del3 mouse line [10]): (31) % | genotype distribution −/− n (Mmachc^del3 mouse line [10]): 19 | adverse events (cblC patients; adults and children on 25 mg/day monitored 2-8 years): no significant adverse events | ABC score (cblC patients; single patient, 5 mg): 79 | eye exam (cblC patients; single patient, 5 mg): normal | average ABC score (cblC patients; [13]): 88.2±10.7 | average FSIQ score (cblC patients; [13]): 91.6±5.3 | ABC score (historic) (cblC patients; [14]): 79.83±17.42 | FSIQ score (historic) (cblC patients; [14]): 70.69±19.11
